For 26 molecules, AC1.4 results are on record in US11780826B2 (Amgen Inc., priority 2017, dated 2023).

For this test, the system named is Bovine cardiac myofibrils. As to the kind of experiment: In vitro model of dose-dependent myofibril ATPase modulation (AC1.4, pyruvate kinase/lactate dehydrogenase-coupled ATPase assay at pCa25). The note with it: concentration at which ATPase activity was 1.4-fold higher than the bottom of the dose curve, mean of a minimum of two independent tests. The test is classed as biochemical. The method in brief:
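Bovine cardiac myofibrils, detergent-treated; 0.25-1.0 mg/ml. Buffer: K-PIPES 12 mM, MgCl2 2 mM, DTT 1 mM, BSA 0.1 mg/ml, pH 6.80, 22° C; Ca2+ set by EGTA/CaCl2. ATP 1 mM, NADH/PEP-coupled, A340. 4-parameter fit; n≥2.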

The structures appear in SMILES notation.

Molecule `O=C(N[C@@H](c1ccc(C(F)(F)F)cc1F)C1CC1)[C@H]1C[C@H]2C[C@H]2N1C(=O)c1ccnc(C(F)F)c1` [Example 605, (1R,3R,5R)-N-((R)-cyclopropyl(2-fluoro-4-(trifluoromethyl)phenyl)methyl)-2-((2-(difluoromethyl)-4-pyridinyl)carbonyl)-2-azabicyclo[3.1.0]hexane-3-carboxamide] showed an AC1.4 of 3.685 µM.

The molecule `Cc1cccc(CNC(=O)[C@H]2CCCN2C(=O)[C@H]2CCCN(S(=O)(=O)N3CC(C#N)C3)C2)c1F` [Example 606, 1-(((3S)-1-((3-cyano-1-azetidinyl)sulfonyl)-3-piperidinyl)carbonyl)-N-(2-fluoro-3-methylbenzyl)-D-prolinamide] displayed an AC1.4 of 3.696 µM. As for `Cc1cccc(F)c1CNC(=O)[C@H]1CCCN1C(=O)[C@H]1CCCN(S(=O)(=O)N2CC(C#N)C2)C1` [Example 607, 1-(((3S)-1-((3-cyano-1-azetidinyl)sulfonyl)-3-piperidinyl)carbonyl)-N-(2-fluoro-6-methylbenzyl)-D-prolinamide], the figure is 3.714 µM; as for `O=C(c1ccccc1)c1cccc(C(=O)N2[C@@H](C(=O)N[C@@H](c3cc(F)c(Cl)cc3F)C3CC3)C[C@H]3C[C@H]32)c1` [Example 608, (1R,3R,5R)-2-(3-benzoylbenzoyl)-N-((R)-(4-chloro-2,5-difluorophenyl)(cyclopropyl)methyl)-2-azabicyclo[3.1.0]hexane-3-carboxamide], 3.7405 µM.

In the case of `CS(=O)(=O)c1cccc(C(=O)N2CC3(CCC3)C2C(=O)N[C@@H](c2ccc(C(F)(F)F)cc2F)C2CC2)c1` (stereo partly drawn) [Example 609, N-((R)-cyclopropyl(2-fluoro-4-(trifluoromethyl)phenyl)methyl)-2-(3-(methylsulfonyl)benzoyl)-2-azaspiro[3.3]heptane-1-carboxamide], the AC1.4 is 3.7443 µM. The value for `O=C(NCc1ccc(C(F)(F)F)cc1F)[C@H]1CCCN1C(=O)[C@H]1CCCN(S(=O)(=O)N2CC(O)C2)C1` [Example 610, N-(2-fluoro-4-(trifluoromethyl)benzyl)-1-(((3S)-1-((3-hydroxy-1-azetidinyl)sulfonyl)-3-piperidinyl)carbonyl)-D-prolinamide] was 3.7735 µM; that for `O=C(N[C@@H](c1ccc(C(F)(F)F)cc1F)C1COC1)[C@H]1C[C@H]2C[C@H]2N1C(=O)c1cncc(C2CC2)c1` [Example 611, (1R,3R,5R)-2-((5-cyclopropyl-3-pyridinyl)carbonyl)-N-((R)-(2-fluoro-4-(trifluoromethyl)phenyl)(3-oxetanyl)methyl)-2-azabicyclo[3.1.0]hexane-3-carboxamide] was 3.788 µM. The value for `COc1ccc(S(C)(=O)=O)cc1C(=O)N1[C@@H](C(=O)N[C@@H](c2ccc(C(F)(F)F)cc2F)C2CC2)C[C@H]2C[C@H]21` [Example 612, (1R,3R,5R)-N-((R)-cyclopropyl(2-fluoro-4-(trifluoromethyl)phenyl)methyl)-2-(2-methoxy-5-(methylsulfonyl)benzoyl)-2-azabicyclo[3.1.0]hexane-3-carboxamide] was 3.527 µM. The value for `N#CC1CN(S(=O)(=O)N2CCC[C@H](C(=O)N3CCC[C@@H]3C(=O)NCc3ccc(Cl)nc3)C2)C1` [Example 613, N-((6-chloro-3-pyridinyl)methyl)-1-(((3S)-1-((3-cyano-1-azetidinyl)sulfonyl)-3-piperidinyl)carbonyl)-D-prolinamide] was 3.8643 µM; that for `COc1ccc(CNC(=O)[C@H]2CCCN2C(=O)[C@H]2CCCN(S(=O)(=O)N3CC(C#N)C3)C2)c(C)c1` [Example 614, 1-(((3S)-1-((3-cyano-1-azetidinyl)sulfonyl)-3-piperidinyl)carbonyl)-N-(4-methoxy-2-methylbenzyl)-D-prolinamide] was 3.8655 µM; that for `O=C(N[C@@H](c1cc(F)c(C(F)(F)F)cc1F)C1CC1)[C@H]1C[C@H]2C[C@H]2N1C(=O)c1cccc(C(F)(F)F)n1` [Example 615, (1R,3R,5R)-N-((R)-cyclopropyl(2,5-difluoro-4-(trifluoromethyl)phenyl)methyl)-2-((6-(trifluoromethyl)-2-pyridinyl)carbonyl)-2-azabicyclo[3.1.0]hexane-3-carboxamide] was 3.8905 µM. For the molecule `CCS(=O)(=O)c1cccc(C(=O)N2[C@@H](C(=O)NCc3cc(F)c(Cl)cc3F)C[C@H]3C[C@H]32)c1` [Example 617, (1R,3R,5R)-N-(4-chloro-2,5-difluorobenzyl)-2-(3-(ethylsulfonyl)benzoyl)-2-azabicyclo[3.1.0]hexane-3-carboxamide], the AC1.4 was determined as 3.626 µM. Molecule `Cc1ccc(Cl)cc1CNC(=O)[C@H]1CCCN1C(=O)[C@H]1CCCN(S(=O)(=O)N2CC(C#N)C2)C1` [Example 618, N-(5-chloro-2-methylbenzyl)-1-(((3S)-1-((3-cyano-1-azetidinyl)sulfonyl)-3-piperidinyl)carbonyl)-D-prolinamide] registered an AC1.4 of 3.9205 µM. Turning to `CS(=O)(=O)c1cccc(C(=O)N2C[C@H](F)C[C@@H]2C(=O)N[C@@H](c2ccc(C(F)(F)F)cc2F)C2CC2)c1` [Example 619, (4R)-N-((R)-cyclopropyl(2-fluoro-4-(trifluoromethyl)phenyl)methyl)-4-fluoro-1-(3-(methylsulfonyl)benzoyl)-D-prolinamide], the AC1.4 came to 3.929 µM.

`N#CC1CC(S(=O)(=O)c2cccc(C(=O)N3CCCC[C@@H]3C(=O)NCc3ccc(Cl)nc3)c2)C1` (stereo partly drawn) [Example 620, (2R)-N-((6-chloro-3-pyridinyl)methyl)-1-((3-((cis-3-cyanocyclobutyl)sulfonyl)phenyl)carbonyl)-2-piperidinecarboxamide,(2R)-N-((6-chloro-3-pyridinyl)methyl)-1-((3-((trans-3-cyanocyclobutyl)sulfonyl)phenyl)carbonyl)-2-piperidinecarboxamide] came in with an AC1.4 of 3.94 µM. The value for `Cc1cc(C(=O)N2[C@@H](C(=O)N[C@@H](c3cc(F)c(Cl)cc3F)C3COC3)C[C@H]3C[C@H]32)ccn1` [Example 621, (1R,3R,5R)-N-((R)-(4-chloro-2,5-difluorophenyl)(3-oxetanyl)methyl)-2-((2-methyl-4-pyridinyl)carbonyl)-2-azabicyclo[3.1.0]hexane-3-carboxamide] was 3.9478 µM; that for `COc1cc2c(cc1F)CCC2NC(=O)[C@H]1CCCN1C(=O)[C@H]1CCCN(S(=O)(=O)N2CC(C#N)C2)C1` (stereo partly drawn) [Example 622, (2R)-1-((S)-1-((3-cyanoazetidin-1-yl)sulfonyl)piperidine-3-carbonyl)-N-(5-fluoro-6-methoxy-2,3-dihydro-1H-inden-1-yl)pyrrolidine-2-carboxamide] was 3.9515 µM; that for `N#CC1CN(S(=O)(=O)N2CCC[C@H](C(=O)N3CCC[C@@H]3C(=O)NCc3c(F)c(F)cc(F)c3F)C2)C1` [Example 623, 1-(((3S)-1-((3-cyano-1-azetidinyl)sulfonyl)-3-piperidinyl)carbonyl)-N-(2,3,5,6-tetrafluorobenzyl)-D-prolinamide] was 3.975 µM. As for `CCC(NC(=O)[C@H]1CCCN1C(=O)[C@H]1CCCN(S(=O)(=O)N2CC(C#N)C2)C1)c1ccc(OC)cc1` (stereo partly drawn) [Example 625, (2R)-1-((S)-1-((3-cyanoazetidin-1-yl)sulfonyl)piperidine-3-carbonyl)-N-(1-(4-methoxyphenyl)propyl)pyrrolidine-2-carboxamide], the AC1.4 was 4.01 µM. In the case of `NC(=O)[C@H]1C[C@H](S(=O)(=O)N2CCC[C@H](C(=O)N3CCC[C@@H]3C(=O)NCc3ccc(C(F)(F)F)cc3)C2)C1` [Example 626, 1-(((3S)-1-((trans-3-carbamoylcyclobutyl)sulfonyl)-3-piperidinyl)carbonyl)-N-(4-(trifluoromethyl)benzyl)-D-prolinamide], the AC1.4 amounted to 4.031 µM. The value for `CC(C)(C)[C@@H](NC(=O)[C@H]1CCCN1C(=O)c1cccc(S(=O)(=O)N2CC(C#N)C2)c1)c1ccc(C(F)(F)F)cc1` [Example 627, 1-(3-((3-cyano-1-azetidinyl)sulfonyl)benzoyl)-N-((1R)-2,2-dimethyl-1-(4-(trifluoromethyl)phenyl)propyl)-D-prolinamide] was 4.037 µM; that for `CC[C@H](NC(=O)[C@H]1CCCN1C(=O)c1cccc(S(=O)(=O)N(C)C)c1)c1ccc(Cl)c(F)c1` [Example 629, N-((1S)-1-(4-chloro-3-fluorophenyl)propyl)-1-(3-(dimethylsulfamoyl)benzoyl)-D-prolinamide] was 4.051 µM.

Take `CC[C@@H](NC(=O)[C@H]1CCCN1C(=O)c1cccc(S(C)(=O)=O)c1)c1ccc(C(F)(F)F)cc1F` [Example 630, N-((1R)-1-(2-fluoro-4-(trifluoromethyl)phenyl)propyl)-1-(3-(methylsulfonyl)benzoyl)-D-prolinamide]: the AC1.4 came to 3.9185 µM. The value for `O=C(NCc1ccc(C(F)(F)F)cc1)[C@H]1CCCN1C(=O)[C@H]1CCCN(S(=O)(=O)N2CC(O)C2)C1` [Example 631, 1-(((3S)-1-((3-hydroxy-1-azetidinyl)sulfonyl)-3-piperidinyl)carbonyl)-N-(4-(trifluoromethyl)benzyl)-D-prolinamide] was 4.082 µM; that for `COc1cc(C(C)NC(=O)[C@H]2CCCN2C(=O)[C@H]2CCCN(S(=O)(=O)N3CC(C#N)C3)C2)ccc1OC(F)F` (stereo partly drawn) [Example 632, (2R)-1-((S)-1-((3-cyanoazetidin-1-yl)sulfonyl)piperidine-3-carbonyl)-N-(1-(4-(difluoromethoxy)-3-methoxyphenyl)ethyl)pyrrolidine-2-carboxamide] was 4.0915 µM.

Molecule `COc1ccc(F)cc1C(C)NC(=O)[C@H]1CCCN1C(=O)[C@H]1CCCN(S(=O)(=O)N2CC(C#N)C2)C1` (stereo partly drawn) [Example 633, (2R)-1-((S)-1-((3-cyanoazetidin-1-yl)sulfonyl)piperidine-3-carbonyl)-N-(1-(5-fluoro-2-methoxyphenyl)ethyl)pyrrolidine-2-carboxamide] returned an AC1.4 of 4.0935 µM.
